Source: US20070203066A1, “Compositions and methods for inhibiting cellular proliferation” (priority 2005, published 2007)
Non-standard residues stand in square brackets, D forms with d. Primed or numbered codes have the meaning given here. No end group written: not given here. *: point of attachment. Ida = iminodiacetic acid linker, its two carboxyls bind the Lys side-chain amines of two peptides, giving a homodimer; Ida(3) = iminodiacetic acid linker, Lys side-chain amines bound to its two carboxyl groups; Ida(4) = iminodiacetic acid linker (dimerization linker bound to lysine side chain); Ida″ = iminodiacetic acid linker bound to the Lys side-chain amine, forming a dimer; Biotin = O=C1N[C@H]2[C@H](CS[C@H]2CCCCC(=O)*)N1

Tested on: HUVECs
Assay type: cell-based
Details: 48 h
Protocol: HUVECs were routinely cultured to near confluency in EGM media (Clontech, Mountain View, California). The cells were trypsinized and plated in a 96-well plate at 5,000 cells per well per 100 μl EBM supplemented with 2% FCS and antibiotics. The cells were allowed to adhere to the plate for at least 12 hours. Then, bFGF at 10 ng/ml or VEGF at 5 ng/ml, and various concentrations of peptide, were added to the wells. The cells were cultured for 48 hours at 37 ° C. in a 5% CO2 atmosphere. Cell proliferation was determined using a bromo-deoxyuridine (BrdU) incorporation method as described by the manufacturer. Inhibition of cell proliferation was assessed by BrdU incorporation.

| Molecule | IC50 |
| --- | --- |
| CC[C@H](C)[C@H](NC(=O)[C@H](CCCNC(=N)N)NC(=O)[C@@H](NC(=O)[C@H](CCCNC(=N)N)NC(=O)[C@H](CCC(N)=O)NC(=O)[C@H](CCCNC(=N)N)NC(=O)[C@H](CCCNC(=N)N)NC(=O)[C@H](CCCNC(=N)N)NC(=O)[C@H](CCCNC(=N)N)NC(=O)[C@H](CCCNC(=N)N)NC(C)=O)C(C)C)C(=O)N[C@H](C(=O)N[C@@H](Cc1ccccc1)C(=O)N[C@@H](CCCCNC(=O)CN(CC(=O)NCCCC[C@H](NC(=O)[C@H](Cc1ccccc1)NC(=O)[C@@H](NC(=O)[C@@H](NC(=O)[C@H](CCCNC(=N)N)NC(=O)[C@@H](NC(=O)[C@H](CCCNC(=N)N)NC(=O)[C@H](CCC(N)=O)NC(=O)[C@H](CCCNC(=N)N)NC(=O)[C@H](CCCNC(=N)N)NC(=O)[C@H](CCCNC(=N)N)NC(=O)[C@H](CCCNC(=N)N)NC(=O)[C@H](CCCNC(=N)N)NC(C)=O)C(C)C)[C@@H](C)CC)[C@@H](C)CC)C(N)=O)C(=O)CCNC(=O)OC(C)(C)C)C(N)=O)[C@@H](C)CC [Peptide 167] | < 10 µM |

Same assay, conditions: HUVEC proliferation, bFGF at 10 ng/ml or VEGF at 5 ng/ml, 48 hours, BrdU incorporation; read-out: IC50 on HUVECs

| Molecule | IC50 |
| --- | --- |
| KTKRKRKKQRVKIAYEEAAVQNM [compound 47] | > 30 µM |
| 379 (Ac-ARRRRQRVAISFK-NH2; not fully specified (residue 13); also: homodimer via Ida linker on Lys13 side chain, Ida amine Boc) [compound 379] | < 10 µM |
| 188 (Ac-RRRRHQRVRIIF; also: dimer: C-terminal Phe bound to an amino group of a Lys linker, 2 chains per Lys) [compound 188] | < 10 µM |
| 364 (Ac-ARRRRQRVAEYFK-NH2; not fully specified (residue 13); also: homodimer of residues 1-13 via Ida linker on K13 side chain) [compound 364] | > 30 µM |
| KTKRKRKKQRVKIAYE [compound 35] | > 30 µM |
| KTKRKRKKQAYEEIFVQNM [compound 29] | > 30 µM |
| 510 (Ac-ARRRRERVAIYFK; not fully specified (C-terminus); also: homodimer via Ida linker at Lys13 side chain) [compound 510] | < 10 µM |
| 462 (Ac-ARRRRK(Ida(3))AVAIYF; also: homodimer via Ida linker on Lys side chains, linker at 6 via Ida, other end not in the chain) [compound 462] | 10 to 30 µM |
| 488 (Ac-PRRRNQAVAIKF; not fully specified (residue 11); also: homodimer via Ida linker on Lys11 side chain) [compound 488] | 10 to 30 µM |
| 310 (Ac-RRRRRQK(Ida)VRIIFV; also: homodimer via Ida linker on Lys7 side chain) [compound 310] | < 10 µM |
| 415 (Ac-ARRRRQAVRIKFV; not fully specified (residue 11, bridges); also: homodimer of residues 1-13 via Ida linker on K11 side chain) [compound 415] | < 10 µM |
| KTKRKRKKQRVKIAYEEIFVQ [compound 26] | < 10 µM |
| 166 (Biotin-TKRKRKKQRVKIIFV; also: Thr1 biotinylated) [compound 166] | 10 to 30 µM |
| 475 (Ac-PRRRNQAVAIYFK(Ida(3)); not fully specified (C-terminus); also: homodimer via Ida linker on Lys13 side chain) [compound 475] | < 10 µM |
| 440 (Ac-RRRRSQAVAIYFK(Ida(4)); not fully specified (C-terminus); also: homodimer via Ida linker at K13) [compound 440] | < 10 µM |
| TKRKRKKQRVKIAYEEIFVKNM [compound 2] | 10 to 30 µM |
| KTKRKRKKQRVKIAYEEIFV [compound 15] | < 10 µM |
| 498 (Ac-PRSRRQAVAIYFK(Ida″); not fully specified (C-terminus); also: homodimer via Ida linker on Lys13 side chain) [compound 498] | < 10 µM |
| RKKQRVKIIFV [compound 89] | > 30 µM |
| 458 (Ac-KARRRRQAVAIYF; not fully specified (residue 1); also: homodimer via Ida linker on Lys side chains, linker at 1 via Ida, other end not in the chain) [compound 458] | > 30 µM |
| KTKKQRVKIAYEEIFVQNM [compound 57] | > 30 µM |
| KTKRKAAKQRVKIAYEEIFVQNM [compound 54] | > 30 µM |
| 444 (Ac-RRRRYQAVAIYFK(Ida(4)); not fully specified (C-terminus); also: homodimer via Ida linker at K13) [compound 444] | < 10 µM |
| 251 (Ac-RRRRRQAVAIPFK; not fully specified (C-terminus); also: homodimer: side chain of Lys13 bound to an Ida linker) [compound 251] | > 30 µM |
| 196 (Ac-ARRRRQRVAIIF; also: dimer: C-terminal Phe bound to an amino group of a Lys linker, 2 chains per Lys) [compound 196] | < 10 µM |
| KTKRKRKKQRVKIAYEQNM [compound 40] | > 30 µM |

| Molecule | IC50 |
| --- | --- |
| 335 (Ac-RHRRHQHVRIYFK; not fully specified (residue 13, C-terminus); also: homodimer via Ida linker on Lys13 side chain) [compound 335] | < 10 µM |
| 241 (Ac-RRHRHQRVRIIF; also: dimer via C-terminal Phe to Lys linker) [compound 241] | < 10 µM |
| 287 (Ac-RRRRHQHVHIYFK-NH2; not fully specified (residue 13); also: homodimer via Ida linker on Lys13 side chain) [compound 287] | < 10 µM |
| KNKSKGVVKIQRRKAPFVVYESIN [compound 7] | > 30 µM |
| 427 (Ac-ARRRRQAVAIK(Ida(4))F; also: homodimer of residues 1-12 via Ida linker on Lys11 side chain) [compound 427] | < 10 µM |
| 384 (Ac-ARRRRQGVAIYFK-NH2; not fully specified (residue 13); also: homodimer via Ida linker on Lys13 side chain, Ida amine Boc) [compound 384] | < 10 µM |
| 339 (Ac-RRHHRQHVRIYFK(Ida(3))-NH2; also: homodimer via Lys13 side chain, Ida linker (Ida amino group Boc)) [compound 339] | < 10 µM |
| 392 (Ac-ARRRRQAVPIYFK; not fully specified (residue 13, C-terminus); also: homodimer of residues 1-13 via Ida linker at Lys13 side chain) [compound 392] | > 30 µM |
| RKKQRVKIAYEEIF [compound 69] | > 30 µM |
| 170 (Ac-RRRRRQRVRIIFK; also: homodimer via Ida-PEG 20 kDa linker on Lys13 side chains) [compound 170] | < 10 µM |
| 268 (Ac-ARRRRQRVAIPFK-NH2; not fully specified (residue 13); also: homodimer: side chain of Lys13 bound to an Ida linker) [compound 268] | > 30 µM |
| 276 (XRRRRQHVRIYFK; not fully specified; Xaa = Acylated Histidine; The side chain of Lysine at position 13 is covalently bound to an Ida linker forming a homodimer of residues 1 through 13.) [compound 276] | < 10 µM |
| 420 (Ac-ARRRRQSVAIYFK; not fully specified (residue 13, C-terminus); also: homodimer of residues 1-13 via Ida linker on K13 side chain) [compound 420] | < 10 µM |
| 311 (Ac-RRRRRQAVRITITFK) [compound 311] | < 10 µM |
| RKRKKQRVKIIFV [compound 90] | 10 to 30 µM |
| 459 (Ac-KRRRRQAVAIYF; not fully specified (residue 1); also: homodimer via Ida linker on Lys side chains, linker at 1 via Ida, other end not in the chain) [compound 459] | > 30 µM |
| 255 (Ac-ARRRRQRVA[dI]IFK-NH2; not fully specified (residue 13); also: homodimer via Ida linker on Lys13 side chains) [compound 255] | < 10 µM |
| 436 (Ac-RRRRLQAVAIYFK(Ida(4)); not fully specified (C-terminus); also: homodimer via Ida linker at K13) [compound 436] | < 10 µM |
| RKRKKQRVKIAYEEIFV [compound 62] | > 30 µM |
| 190 (Ac-RRRRRQRVHIIF; also: dimer: C-terminal Phe bound to an amino group of a Lys linker, 2 chains per Lys) [compound 190] | < 10 µM |
| KAKRKRKKQRVKIIFVQNM [compound 122] | < 10 µM |
| 349 (Ac-ARRRRQRVAIYPK-NH2; not fully specified (residue 13); also: homodimer of residues 1-13 via Ida linker on Lys13 side chain) [compound 349] | > 30 µM |
| 211 (Ac-RRRRRQAVAIIF; also: dimer: Phe C-termini joined via Lys linker) [compound 211] | < 10 µM |
| 210 (Ac-RRRRAQRVAIIF; also: dimer: Phe C-termini joined via Lys linker) [compound 210] | < 10 µM |
| KTKRKRKKQRVKIIF [compound 79] | > 30 µM |
